This note sets out measurements from ChEMBL document CHEMBL1147627, “Synthesis of cinnamic acids and related isosteres as potent and selective alpha v beta 3 receptor antagonists” (Bioorg Med Chem Lett, 2004).

The structures appear in SMILES notation.

Broadly, the IC50 is the point on the concentration scale where inhibition reaches its midpoint. Lower therefore signals inhibition by little substance.

The target in assay [1] is T1, Integrin alpha-V/beta-3 (Homo sapiens, UniProt P05106+P06756). Kind of assay: Binding affinity towards alpha V/beta3 receptor by solid-phase receptor binding assays (SPRA). It is filed as protein-complex assay.
T1 sequence (P05106 27-788 limits assumed): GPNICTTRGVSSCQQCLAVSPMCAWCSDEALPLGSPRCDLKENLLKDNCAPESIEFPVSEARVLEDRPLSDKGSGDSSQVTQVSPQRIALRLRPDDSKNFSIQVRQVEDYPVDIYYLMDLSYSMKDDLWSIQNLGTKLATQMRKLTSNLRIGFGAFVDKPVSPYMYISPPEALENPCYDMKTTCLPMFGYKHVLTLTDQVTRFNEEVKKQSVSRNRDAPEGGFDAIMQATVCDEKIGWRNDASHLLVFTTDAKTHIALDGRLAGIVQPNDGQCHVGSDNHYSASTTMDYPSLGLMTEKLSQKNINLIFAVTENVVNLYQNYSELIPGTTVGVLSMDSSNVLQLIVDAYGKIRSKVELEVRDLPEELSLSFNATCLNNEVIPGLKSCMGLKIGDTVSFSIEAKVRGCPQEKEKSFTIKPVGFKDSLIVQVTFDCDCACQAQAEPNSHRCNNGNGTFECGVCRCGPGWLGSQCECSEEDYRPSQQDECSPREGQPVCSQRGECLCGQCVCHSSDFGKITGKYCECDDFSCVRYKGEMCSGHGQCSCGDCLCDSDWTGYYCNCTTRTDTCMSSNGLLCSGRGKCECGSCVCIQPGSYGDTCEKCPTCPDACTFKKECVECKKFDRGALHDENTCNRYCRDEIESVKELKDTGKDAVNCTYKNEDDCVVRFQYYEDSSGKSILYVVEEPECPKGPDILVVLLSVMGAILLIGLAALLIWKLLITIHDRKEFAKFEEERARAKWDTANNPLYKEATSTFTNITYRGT
T1 sequence (P06756 31-889 limits assumed): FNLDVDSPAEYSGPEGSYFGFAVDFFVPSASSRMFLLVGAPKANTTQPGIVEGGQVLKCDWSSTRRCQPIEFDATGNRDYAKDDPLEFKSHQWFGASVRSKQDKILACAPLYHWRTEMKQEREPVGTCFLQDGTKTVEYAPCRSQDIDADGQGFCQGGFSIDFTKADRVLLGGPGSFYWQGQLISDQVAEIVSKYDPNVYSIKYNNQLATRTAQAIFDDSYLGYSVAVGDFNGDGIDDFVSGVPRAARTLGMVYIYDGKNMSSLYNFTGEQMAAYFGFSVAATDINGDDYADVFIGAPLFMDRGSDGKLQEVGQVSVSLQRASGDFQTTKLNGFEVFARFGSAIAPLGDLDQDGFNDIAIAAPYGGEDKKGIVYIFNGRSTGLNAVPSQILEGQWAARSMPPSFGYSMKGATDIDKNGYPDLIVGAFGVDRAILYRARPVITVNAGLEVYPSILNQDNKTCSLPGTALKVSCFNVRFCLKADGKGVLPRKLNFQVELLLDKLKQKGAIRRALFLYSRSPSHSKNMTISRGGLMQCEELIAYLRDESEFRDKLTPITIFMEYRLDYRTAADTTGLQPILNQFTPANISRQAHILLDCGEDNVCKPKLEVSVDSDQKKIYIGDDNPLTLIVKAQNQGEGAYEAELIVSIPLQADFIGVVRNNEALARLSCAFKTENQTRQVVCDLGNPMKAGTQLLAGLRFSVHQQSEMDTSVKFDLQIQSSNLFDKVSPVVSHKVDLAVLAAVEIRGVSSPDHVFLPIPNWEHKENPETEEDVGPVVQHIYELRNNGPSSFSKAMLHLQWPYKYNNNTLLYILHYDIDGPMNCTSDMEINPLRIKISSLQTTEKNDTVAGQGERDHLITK
T1 sequence (P06756 891-1048 limits assumed): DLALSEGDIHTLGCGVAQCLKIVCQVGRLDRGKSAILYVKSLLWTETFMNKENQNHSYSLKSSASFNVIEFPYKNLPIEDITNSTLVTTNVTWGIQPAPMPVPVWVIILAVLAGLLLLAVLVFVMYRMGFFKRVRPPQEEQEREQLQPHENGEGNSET
A further assay addresses Integrin alpha-V/beta-1 (Homo sapiens, UniProt P05556+P06756). Kind of assay: Binding affinity towards alpha V-beta1 receptor expressed in HEK293 cells. It is filed as cell-based.
Assay [2] addresses T1, Integrin alpha-V/beta-3. Kind of assay: Binding affinity towards alpha V-beta3 receptor expressed in HEK293 cells. The format is cell-based.
In another assay the target is Integrin alpha-V/beta-5 (Homo sapiens, UniProt P06756+P18084). Description: Binding affinity towards alpha V-beta5 receptor expressed in HEK293 cells. The format is cell-based.
Integrin alpha-V/beta-5, sequence (P06756 31-889 limits assumed): as the sequence (P06756 31-889 limits assumed) above
Integrin alpha-V/beta-5, sequence (P06756 891-1048 limits assumed): as the sequence (P06756 891-1048 limits assumed) above
Integrin alpha-V/beta-5, sequence (P18084 24-799 limits assumed): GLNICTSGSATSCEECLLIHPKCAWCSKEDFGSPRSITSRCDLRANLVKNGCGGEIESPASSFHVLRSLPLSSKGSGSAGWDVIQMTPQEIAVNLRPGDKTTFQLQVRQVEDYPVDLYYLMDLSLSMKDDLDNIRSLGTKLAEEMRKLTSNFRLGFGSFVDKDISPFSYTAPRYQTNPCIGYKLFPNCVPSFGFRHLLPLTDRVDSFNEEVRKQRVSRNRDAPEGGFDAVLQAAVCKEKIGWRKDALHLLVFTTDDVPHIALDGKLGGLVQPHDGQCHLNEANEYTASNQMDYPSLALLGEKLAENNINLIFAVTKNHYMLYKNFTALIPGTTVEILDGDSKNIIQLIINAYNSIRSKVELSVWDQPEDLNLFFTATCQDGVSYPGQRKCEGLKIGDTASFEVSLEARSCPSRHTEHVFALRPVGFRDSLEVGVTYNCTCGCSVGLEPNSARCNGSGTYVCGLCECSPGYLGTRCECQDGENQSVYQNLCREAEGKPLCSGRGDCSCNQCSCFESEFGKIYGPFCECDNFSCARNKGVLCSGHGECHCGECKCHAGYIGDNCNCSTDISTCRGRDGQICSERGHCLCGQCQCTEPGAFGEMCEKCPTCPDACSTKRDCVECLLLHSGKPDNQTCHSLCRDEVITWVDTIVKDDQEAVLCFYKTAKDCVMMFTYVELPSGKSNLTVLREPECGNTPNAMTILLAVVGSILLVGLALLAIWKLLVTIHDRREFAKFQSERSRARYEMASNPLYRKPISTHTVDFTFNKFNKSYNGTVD
Assay [3] addresses Integrin alpha-IIb/beta-3 (Homo sapiens, UniProt P05106+P08514). Kind of assay: Binding affinity towards alpha IIb/beta3 integrin by solid-phase receptor binding assay (SPRA). It is filed as protein-complex assay.

Integrin alpha-V/beta-1, sequence (P05556 21-798 limits assumed): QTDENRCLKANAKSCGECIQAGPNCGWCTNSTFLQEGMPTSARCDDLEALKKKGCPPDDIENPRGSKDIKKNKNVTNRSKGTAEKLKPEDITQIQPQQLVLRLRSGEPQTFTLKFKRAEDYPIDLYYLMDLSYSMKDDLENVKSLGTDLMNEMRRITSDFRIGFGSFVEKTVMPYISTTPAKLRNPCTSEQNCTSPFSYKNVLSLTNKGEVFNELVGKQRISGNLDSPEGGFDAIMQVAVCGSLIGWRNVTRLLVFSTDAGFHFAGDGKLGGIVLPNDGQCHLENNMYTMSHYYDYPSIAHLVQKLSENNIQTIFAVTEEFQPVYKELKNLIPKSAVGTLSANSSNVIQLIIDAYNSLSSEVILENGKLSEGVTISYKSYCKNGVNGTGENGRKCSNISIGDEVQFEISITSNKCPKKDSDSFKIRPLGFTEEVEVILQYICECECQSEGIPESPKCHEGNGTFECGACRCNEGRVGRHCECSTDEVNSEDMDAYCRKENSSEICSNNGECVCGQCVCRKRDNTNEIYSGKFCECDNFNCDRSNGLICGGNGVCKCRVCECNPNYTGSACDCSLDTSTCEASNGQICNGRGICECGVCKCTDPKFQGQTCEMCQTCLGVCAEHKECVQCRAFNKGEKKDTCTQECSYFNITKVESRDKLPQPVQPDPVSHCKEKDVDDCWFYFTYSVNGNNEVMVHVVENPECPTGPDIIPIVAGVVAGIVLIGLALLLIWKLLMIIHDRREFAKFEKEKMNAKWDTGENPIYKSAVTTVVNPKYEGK
Integrin alpha-V/beta-1, sequence (P06756 31-889 limits assumed): as the sequence (P06756 31-889 limits assumed) above
Integrin alpha-V/beta-1, sequence (P06756 891-1048 limits assumed): as the sequence (P06756 891-1048 limits assumed) above
Integrin alpha-IIb/beta-3, sequence (P05106 27-788 limits assumed): as the sequence (P05106 27-788 limits assumed) above
Integrin alpha-IIb/beta-3, sequence (P08514 32-887 limits assumed): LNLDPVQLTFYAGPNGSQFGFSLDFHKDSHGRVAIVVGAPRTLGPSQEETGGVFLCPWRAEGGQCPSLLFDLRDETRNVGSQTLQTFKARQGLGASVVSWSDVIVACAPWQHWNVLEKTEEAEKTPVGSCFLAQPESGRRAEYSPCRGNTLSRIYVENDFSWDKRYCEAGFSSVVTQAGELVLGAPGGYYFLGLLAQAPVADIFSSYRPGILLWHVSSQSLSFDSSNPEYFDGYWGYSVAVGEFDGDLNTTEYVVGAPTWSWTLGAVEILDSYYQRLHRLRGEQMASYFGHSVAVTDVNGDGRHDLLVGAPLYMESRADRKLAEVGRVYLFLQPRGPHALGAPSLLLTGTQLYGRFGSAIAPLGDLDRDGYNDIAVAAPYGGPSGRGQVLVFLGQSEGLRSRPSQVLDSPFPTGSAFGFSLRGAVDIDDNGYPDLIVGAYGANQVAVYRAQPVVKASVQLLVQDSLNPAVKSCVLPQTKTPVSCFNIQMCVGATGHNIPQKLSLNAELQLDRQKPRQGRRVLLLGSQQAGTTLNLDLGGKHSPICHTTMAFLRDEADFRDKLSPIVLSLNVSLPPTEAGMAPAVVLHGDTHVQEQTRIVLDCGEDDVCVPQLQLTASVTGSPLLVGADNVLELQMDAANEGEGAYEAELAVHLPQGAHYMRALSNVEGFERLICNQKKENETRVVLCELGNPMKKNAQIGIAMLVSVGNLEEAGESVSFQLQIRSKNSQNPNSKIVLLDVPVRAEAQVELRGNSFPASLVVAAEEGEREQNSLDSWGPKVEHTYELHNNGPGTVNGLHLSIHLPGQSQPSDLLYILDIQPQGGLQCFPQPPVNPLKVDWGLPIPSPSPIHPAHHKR
Integrin alpha-IIb/beta-3, sequence (P08514 891-1039 limits assumed): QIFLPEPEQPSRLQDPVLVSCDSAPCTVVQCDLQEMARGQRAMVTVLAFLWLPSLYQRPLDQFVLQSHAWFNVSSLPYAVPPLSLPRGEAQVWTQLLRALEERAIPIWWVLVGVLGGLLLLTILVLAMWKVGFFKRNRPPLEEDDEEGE

As to `N=C(N)Nc1cccc(C(=O)Nc2ccc(/C=C/C(=O)O)c(C(=O)O)c2)c1`, the half-inhibitory concentration (IC50) on Integrin alpha-V/beta-3 [1] turned out to be 0.0012 µM.
On to `Cc1cc(/C=C/C(=O)O)cc(C)c1NC(=O)c1cccc(NC2=NCCN2)c1`, for which the values for the IC50 on Integrin alpha-V/beta-1, on Integrin alpha-V/beta-3 [2] and at Integrin alpha-V/beta-5 were 0.264 µM, 0.003 µM and 0.029 µM, respectively.
As to `O=C(Nc1ccc(CC(NS(=O)(=O)c2ccccc2)C(=O)O)cc1)c1cccc(NC2=NCCN2)c1` (stereo not drawn), the IC50 at Integrin alpha-V/beta-3 [1] was found to be 0.00027 µM; in assay [3], 0.0125 µM.
The corresponding values for `N=C(N)Nc1cccc(C(=O)Nc2ccc(/C=C/C(=O)O)c(Cl)c2)c1` are 0.023 µM and 0.045 µM.
As for `CC(C)OC(=O)NC(Cc1ccc(NC(=O)c2cccc(NC3=NC(=O)CN3)c2)cc1)C(=O)O` (stereo not drawn), the values for the IC50 at Integrin alpha-V/beta-1, on Integrin alpha-V/beta-3 [2] and at Integrin alpha-V/beta-5 were 0.0177 µM, 0.00094 µM and 0.00089 µM, respectively.
For `Cc1cc(NC(=O)c2cccc(NC(=N)N)c2)ccc1/C=C/C(=O)O` the same measures were 0.505 µM, 0.0194 µM and 0.049 µM.
For `N=C(N)Nc1cccc(C(=O)Nc2ccc(/C=C/C(=O)O)cc2Cl)c1` the same measures were 0.426 µM, 0.0059 µM and 0.06 µM.
`O=C(O)/C=C/c1ccc(NC(=O)c2cccc(NC3=NCCCN3)c2)cc1`: the IC50 on Integrin alpha-V/beta-1 amounted to 0.219 µM; on Integrin alpha-V/beta-3 [2], 0.0018 µM; on Integrin alpha-V/beta-3 [1] it was 0.002 µM; at Integrin alpha-V/beta-5, 0.0076 µM; in assay [3] it was 0.528 µM.
With `O=C(O)/C=C/c1ccc(NC(=O)c2cccc(NC3=NCCCN3)c2)cc1Cl`, the IC50 at Integrin alpha-V/beta-1 stood at 0.507 µM; at Integrin alpha-V/beta-3 [2] it was 0.0038 µM; at Integrin alpha-V/beta-3 [1], 0.0039 µM; at Integrin alpha-V/beta-5 it was 0.026 µM; in assay [3], 0.641 µM.
For `CC(=O)NC(Cc1ccc(NC(=O)c2cccc(N=C(N)N)c2)cc1)C(=O)O` (stereo not drawn), the IC50 at Integrin alpha-V/beta-1 is 0.016 µM; at Integrin alpha-V/beta-3 [2] it was 0.0026 µM; at Integrin alpha-V/beta-5, 0.04 µM.
Turning to `COc1cc(/C=C/C(=O)O)ccc1NC(=O)c1cccc(NC(=N)N)c1`, the IC50 at Integrin alpha-V/beta-3 [1] was 0.0103 µM; in assay [3], 0.038 µM.
On to `COc1cc(NC(=O)c2cccc(NC3=NCCCN3)c2)ccc1CCC(=O)O`, for which the IC50 at Integrin alpha-V/beta-1 amounted to 0.162 µM; on Integrin alpha-V/beta-3 [2], 0.0056 µM; at Integrin alpha-V/beta-3 [1], 0.0058 µM; on Integrin alpha-V/beta-5, 0.0166 µM.
For `CC(C)(C)OC(=O)NC(Cc1ccc(NC(=O)c2cccc(N=C(N)N)c2)cc1)C(=O)O` (stereo not drawn), the values for the IC50 at Integrin alpha-V/beta-1, on Integrin alpha-V/beta-3 [2] and at Integrin alpha-V/beta-5 were 0.0067 µM, 0.0025 µM and 0.001 µM, respectively.
Turning to `CC(C)OC(=O)NC(Cc1ccc(NC(=O)c2cccc(N=C(N)N)c2)cc1)C(=O)O` (stereo not drawn), the IC50 came out at 0.00047 µM on Integrin alpha-V/beta-1, 0.0026 µM at Integrin alpha-V/beta-3 [2], 0.00076 µM at Integrin alpha-V/beta-5 and 0.022 µM in assay [3].
In the case of `N=C(N)Nc1cccc(C(=O)Nc2ccc(C3CC3C(=O)O)cc2)c1` (stereo not drawn), the IC50 is 0.339 µM at Integrin alpha-V/beta-1, 0.065 µM at Integrin alpha-V/beta-3 [2], 0.031 µM at Integrin alpha-V/beta-3 [1] and 0.149 µM on Integrin alpha-V/beta-5.
`O=C(Nc1ccc(C2CC2C(=O)O)cc1)c1cccc(NC2=NCCCN2)c1` (stereo not drawn): the results for the IC50 on Integrin alpha-V/beta-1, on Integrin alpha-V/beta-3 [2] and at Integrin alpha-V/beta-5 were 0.32 µM, 0.04 µM and 0.069 µM, respectively.
As for `O=C(O)/C=C/c1ccc(NC(=O)c2cccc(NC3=NCCCN3)c2)c(Cl)c1`, the values for the IC50 on Integrin alpha-V/beta-1, at Integrin alpha-V/beta-3 [2] and on Integrin alpha-V/beta-5 were 0.085 µM, 0.0017 µM and 0.013 µM, respectively.
In turn, `O=C(O)CCc1ccc(NC(=O)c2cccc(NC3=NCCCN3)c2)cc1C(=O)O` came in with an IC50 on Integrin alpha-V/beta-3 [1] of 0.0061 µM.
On the same count and under the same terms, under `CCc1cc(/C=C/C(=O)O)ccc1NC(=O)c1cccc(NC(=N)N)c1` stands 0.003 µM.
In the case of `Cc1cc(/C=C/C(=O)O)ccc1NC(=O)c1cccc(NC2=NCCCN2)c1`, the IC50 on Integrin alpha-V/beta-1 worked out at 0.06 µM; at Integrin alpha-V/beta-3 [2] it was 0.0017 µM; on Integrin alpha-V/beta-5, 0.0096 µM.
In the case of `COc1cc(NC(=O)c2cccc(NC(=N)N)c2)ccc1CC(NC(=O)OC(C)C)C(=O)O` (stereo not drawn), the IC50 stood at 0.0011 µM at Integrin alpha-V/beta-1, 0.00032 µM on Integrin alpha-V/beta-3 [2], 0.0011 µM on Integrin alpha-V/beta-3 [1] and 0.00038 µM on Integrin alpha-V/beta-5.
Turning to `COc1cc(NC(=O)c2cccc(NC3=NCCCN3)c2)ccc1OCC(=O)O`, the IC50 amounted to 0.082 µM on Integrin alpha-V/beta-1, 0.0017 µM on Integrin alpha-V/beta-3 [2], 0.00043 µM at Integrin alpha-V/beta-3 [1] and 0.029 µM on Integrin alpha-V/beta-5.
Take `N=C(N)Nc1cccc(C(=O)Nc2cc(Cl)c(/C=C/C(=O)O)c(Cl)c2)c1`: the IC50 in assay [3] came out at 25 µM. This counts as double-digit micromolar.
As for `COc1cc(NC(=O)c2cccc(N=C(N)N)c2)ccc1OCC(=O)O`, the IC50 on Integrin alpha-V/beta-1 worked out at 0.222 µM; at Integrin alpha-V/beta-3 [2], 0.0043 µM; at Integrin alpha-V/beta-3 [1], 0.0032 µM; at Integrin alpha-V/beta-5, 0.102 µM.
For `COc1cc(NC(=O)c2cccc(NC3=NCCCN3)c2)ccc1CC(NC(=O)OC(C)C)C(=O)O` (stereo not drawn), the IC50 on Integrin alpha-V/beta-1 turned out to be 0.00068 µM; at Integrin alpha-V/beta-3 [2], 0.00035 µM; at Integrin alpha-V/beta-3 [1], 0.00016 µM; at Integrin alpha-V/beta-5, 0.00041 µM; in assay [3], 1 µM.
For the molecule `NC(N)=Nc1cccc(C(=O)Nc2ccc(CCC(=O)O)cc2)c1`, the half-inhibitory concentration (IC50) is 0.758 µM at Integrin alpha-V/beta-1, 0.0109 µM on Integrin alpha-V/beta-3 [2] and 0.135 µM at Integrin alpha-V/beta-5.
`COc1cc(NC(=O)c2cccc(NC3=NCCCN3)c2)ccc1/C=C/C(=O)O`: the IC50 at Integrin alpha-V/beta-3 [1] worked out at 0.0022 µM; in assay [3], 0.661 µM.
Take `N=C(N)Nc1cccc(C(=O)Nc2ccc(CC(NS(=O)(=O)c3ccccc3)C(=O)O)cc2)c1` (stereo not drawn): the half-inhibitory concentration (IC50) on Integrin alpha-V/beta-1 is 0.0183 µM; on Integrin alpha-V/beta-3 [2], 0.0002 µM; on Integrin alpha-V/beta-5, 0.0081 µM.
On to `N=C(N)Nc1cccc(C(=O)Nc2ccc(/C=C/C(=O)O)cc2F)c1`, for which the IC50 is 0.426 µM at Integrin alpha-V/beta-1, 0.0096 µM at Integrin alpha-V/beta-3 [2] and 0.045 µM on Integrin alpha-V/beta-5.
For `N=C(N)Nc1cccc(C(=O)Nc2ccc(/C=C/C(=O)O)cc2)c1` the same measures were 0.109 µM, 0.0131 µM and 0.039 µM.
For `N=C(N)Nc1cccc(C(=O)Nc2ccc(OCC(=O)O)cc2)c1` the same measures were 0.351 µM, 0.0119 µM and 0.144 µM.
Turning to `O=C(Nc1ccc(CC(NS(=O)(=O)c2ccccc2)C(=O)O)cc1)c1cccc(NC2=NCCCN2)c1` (stereo not drawn), the IC50 came out at 0.0104 µM on Integrin alpha-V/beta-1; 0.00012 µM on Integrin alpha-V/beta-3 [2]; 0.00011 µM at Integrin alpha-V/beta-3 [1]; 0.00096 µM on Integrin alpha-V/beta-5; 0.006 µM in assay [3].
Regarding `Cc1cc(/C=C/C(=O)O)cc(C)c1NC(=O)c1cccc(NC(=N)N)c1`, the IC50 on Integrin alpha-V/beta-1 amounted to 2.07 µM; at Integrin alpha-V/beta-3 [2], 0.021 µM; at Integrin alpha-V/beta-5 it was 0.116 µM.
For the molecule `CC(C)(C)NC(=O)NC(Cc1ccc(NC(=O)c2cccc(N=C(N)N)c2)cc1)C(=O)O` (stereo not drawn), the IC50 worked out at 0.0048 µM at Integrin alpha-V/beta-1, 0.0029 µM on Integrin alpha-V/beta-3 [2], 0.0032 µM on Integrin alpha-V/beta-3 [1] and 0.003 µM on Integrin alpha-V/beta-5.
With `CS(=O)(=O)NC(Cc1ccc(NC(=O)c2cccc(N=C(N)N)c2)cc1)C(=O)O` (stereo not drawn), the IC50 at Integrin alpha-V/beta-1 was 0.029 µM; at Integrin alpha-V/beta-3 [2] it was 0.00098 µM; on Integrin alpha-V/beta-5 it was 0.0031 µM.
